Where “and” joins values, the source holds several entries; their conditions need not be identical. Equal values may be shown once. Read-outs that look alike come from different tables or passages of the source.
Key:
CYP2E1 = CYP2E1 (Homo sapiens, UniProt P05181); assay: Induction/inhibition of CYP2E1 activity in cryopreserved human hepatocytes (chlorzoxazone)
Excerpt: Hepatocytes from three human donors were obtained from a cryopreserved hepatocyte bank (In Vitro Technologies, Inc., USA). After thawing, viable hepatocytes were transferred to collagen-coated 48-well plates for attachment in plating medium (DMEM stock (Dulbecco's modified Eagle's medium, supplemented with bovine serum albumin, fructose, N-(2-hydroxyethyl)piperazine-N′-(2-ethanesulfonate) (HEPES), and sodium bicarbonate), supplemented with antibiotics, bovine serum, hydrocortisone, insulin and minimum essential medium (MEM) nonessential amino acids). After attachment to the collagen matrix, plating medium was replaced with sandwich medium (plating medium supplemented with VITROGEN) and incubated until use.
The supplemented KHB was replaced with 150 μL supplemented KHB containing the appropriate isoform-selective substrate and incubated for 4 hrs prior to termination by adding 150 μL ice-cold methanol, except for the CYP2C8 incubations which were terminated by adding 150 μL acetonitrile.
All substrates were dissolved in acetonitrile.
Replicate trials and controls were performed. […] Additionally, reference control samples were included to evaluate inducibility of CYP2B6, CYP2C9, and CYP2C19 in the test system.
Mean specific activity values with associated p-values≦0.05 were deemed to be statistically significant.

CYP2C9 = CYP2C9 (Homo sapiens, UniProt P11712); conditions: 1 mg/mL HLM, 60 min, with sulfaphenazole; for % Turnover / % inhibition of turnover / Conc.: single replicates
Procedure: Human liver microsomes pooled from 15 individuals (male and female) (Pool HMMC-PL020; CellzDirect, Inc., In Vitro Products and Services Division) were used in some experiments of this study.
% Turnover=100−{[TA(final)]/[mean of TA(0 min)]}×100,
% Inhibition of Turnover=100{1−([TA(0 min)]−[TA(final-inhibitor)])/([TA(0 min)]−[TA(final-no inhibitor)])}.
The inhibitors or vehicle control were incubated with the pooled human liver microsomes (1 mg/mL) and NADPH (1 mM) in 0.1 M phosphate buffer, pH 7.4. […] Incubations were conducted in triplicate and terminated by addition of organic solvent. Samples were extracted and analyzed by LC-MS/MS as described above.

CYP2A6 = molecular target: T1, CYP2A6 (Homo sapiens, UniProt P11509); assay: Metabolism of metaxalone by expressed recombinant human CYP2A6 (Example 1); conditions: 30 min;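 note: expressed P450 incubations started with NADPH regenerating system, 0.5 mL final volume, compared against metabolic negative controls, with background signal estimated from matrix controls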
T1 sequence (P11509 1-494): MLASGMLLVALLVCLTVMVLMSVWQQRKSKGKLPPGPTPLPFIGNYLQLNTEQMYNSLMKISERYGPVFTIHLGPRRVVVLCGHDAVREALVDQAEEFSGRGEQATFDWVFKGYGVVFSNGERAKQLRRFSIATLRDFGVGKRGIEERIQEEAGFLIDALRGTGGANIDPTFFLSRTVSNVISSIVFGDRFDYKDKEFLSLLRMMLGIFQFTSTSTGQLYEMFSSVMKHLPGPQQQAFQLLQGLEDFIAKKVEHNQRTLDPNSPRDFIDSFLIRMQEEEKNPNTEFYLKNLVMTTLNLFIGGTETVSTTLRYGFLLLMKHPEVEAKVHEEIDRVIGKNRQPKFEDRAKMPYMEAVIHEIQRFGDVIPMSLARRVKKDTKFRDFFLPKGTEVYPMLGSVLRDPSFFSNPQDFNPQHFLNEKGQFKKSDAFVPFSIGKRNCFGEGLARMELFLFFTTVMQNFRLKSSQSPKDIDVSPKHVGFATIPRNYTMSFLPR
Procedure: Commercially available microsomes from baculovirus-infected insect cells containing singly-expressed recombinant wild-type (*1 allele) human CYP enzymes and cDNA-expressed human cytochrome p450 oxidoreductase [BD SUPERSOMES Enzymes; BD Biosciences Discovery Labware (Woburn, Mass.)] were used.
After a 5-minute pre-incubation, an NADPH regenerating system (NRS) was added to the incubation mixtures to initiate reactions, with a final incubation volume of 0.5 mL. Incubations were continued for 30 minutes, and then terminated, except for those for CYP2C19, which were incubated for 36 minutes prior to termination.
Matrix controls were performed to determine the background signal from the matrix components (microsomes (10 pmol p450), 01N Tris buffer, NRS, and 1% methanol). […] After a 5-minute pre-incubation, 2% sodium bicarbonate solution was added to the incubation mixtures. Incubation was for 30 minutes at a final volume of 0.5 mL. Matrix and metabolic negative controls were terminated by adding an equal volume of methanol. […] Analysis of samples was subsequent to storage at −70° C.

CYP2B6 = molecular target: T2, CYP2B6 (Homo sapiens, UniProt P20813); assay: Metabolism of metaxalone by expressed recombinant human CYP2B6 at 5 or 20 pmol (Example 4); conditions: for % Turnover Mean / [metaxalone] Mean / % Turnover % / [metaxalone]: 60 min; for % Turnover % / [metaxalone]: single replicates
T2 sequence (P20813 1-491): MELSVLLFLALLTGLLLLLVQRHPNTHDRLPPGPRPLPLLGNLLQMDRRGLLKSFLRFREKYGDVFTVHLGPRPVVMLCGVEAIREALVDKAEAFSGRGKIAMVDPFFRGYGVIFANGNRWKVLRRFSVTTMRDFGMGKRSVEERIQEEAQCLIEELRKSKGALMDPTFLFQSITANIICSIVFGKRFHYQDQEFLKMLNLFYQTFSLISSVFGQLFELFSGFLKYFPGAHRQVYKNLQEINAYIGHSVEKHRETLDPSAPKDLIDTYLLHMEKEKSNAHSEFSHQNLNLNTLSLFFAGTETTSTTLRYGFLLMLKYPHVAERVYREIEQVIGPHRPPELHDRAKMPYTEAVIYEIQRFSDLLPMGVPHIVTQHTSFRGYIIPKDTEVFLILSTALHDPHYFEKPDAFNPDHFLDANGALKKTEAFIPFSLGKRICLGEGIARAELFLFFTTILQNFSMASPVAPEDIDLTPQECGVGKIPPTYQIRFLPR

[1] = 0.75 μM metaxalone, 5 pmol cyp, listed as Metaxalone
[2] = 0.75 μM metaxalone, 20 pmol cyp
[3] = 0.75 μM metaxalone, 20 pmol cyp, listed as Metaxalone
[4] = 7.5 μM metaxalone, 5 pmol cyp, listed as Metaxalone
[5] = 7.5 μM metaxalone, 20 pmol cyp, listed as Metaxalone

CYP2E1, sequence (P05181 whole entry): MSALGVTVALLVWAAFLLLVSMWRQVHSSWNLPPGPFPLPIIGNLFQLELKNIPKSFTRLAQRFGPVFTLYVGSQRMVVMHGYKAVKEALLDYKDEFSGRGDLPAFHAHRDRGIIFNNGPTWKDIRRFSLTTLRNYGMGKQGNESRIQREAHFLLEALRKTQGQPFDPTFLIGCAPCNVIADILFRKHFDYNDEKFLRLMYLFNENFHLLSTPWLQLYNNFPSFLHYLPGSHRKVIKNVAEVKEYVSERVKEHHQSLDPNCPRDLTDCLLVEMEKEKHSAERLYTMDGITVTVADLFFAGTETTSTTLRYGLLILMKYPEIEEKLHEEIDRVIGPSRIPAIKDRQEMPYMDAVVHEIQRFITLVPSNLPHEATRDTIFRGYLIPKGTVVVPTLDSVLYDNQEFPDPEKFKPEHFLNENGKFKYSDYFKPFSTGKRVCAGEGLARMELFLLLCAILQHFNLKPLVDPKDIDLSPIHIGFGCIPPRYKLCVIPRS
CYP2C9, sequence (P11712 whole entry): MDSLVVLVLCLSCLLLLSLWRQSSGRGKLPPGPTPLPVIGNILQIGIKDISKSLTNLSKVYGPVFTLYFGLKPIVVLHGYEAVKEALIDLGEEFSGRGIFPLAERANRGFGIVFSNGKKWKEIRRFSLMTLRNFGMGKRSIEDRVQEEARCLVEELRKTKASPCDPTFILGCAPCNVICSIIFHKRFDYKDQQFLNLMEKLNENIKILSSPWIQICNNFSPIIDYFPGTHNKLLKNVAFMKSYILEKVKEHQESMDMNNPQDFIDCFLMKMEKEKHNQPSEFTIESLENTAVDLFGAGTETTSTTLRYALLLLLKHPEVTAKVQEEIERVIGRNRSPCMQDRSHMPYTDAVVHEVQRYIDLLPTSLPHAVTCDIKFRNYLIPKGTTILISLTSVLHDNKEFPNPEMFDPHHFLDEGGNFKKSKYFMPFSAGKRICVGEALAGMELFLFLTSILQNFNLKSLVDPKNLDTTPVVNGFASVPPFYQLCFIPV

## Cc1cc(C)cc(OCC2CNC(=O)O2)c1 (centres unmarked) [metaxalone, 5-[(3,5-dimethylphenoxy)methyl]-2-oxazolidinone]
CYP2E1; CYP isozyme 2E1, summary of studies
  Inducer/Inhibitor: 0
CYP2E1; Donor 1, Metaxalone 0.4 μM
  Specific Activity Individual: 2.58 pmol/min/million cells and 2.66 pmol/min/million cells and 2.19 pmol/min/million cells
  Specific Activity Mean ± SD: 2.47 ± 0.249 pmol/min/million cells
CYP2E1; Donor 1, Metaxalone 4 μM
  Percent of VC: 104%
  Specific Activity Individual: 2.57 pmol/min/million cells and 2.47 pmol/min/million cells and 2.87 pmol/min/million cells
  Specific Activity Mean ± SD: 2.64 ± 0.210 pmol/min/million cells
CYP2E1; Donor 1, Metaxalone 40 μM
  Percent of VC: 104%
  Specific Activity Individual: 2.54 pmol/min/million cells and 2.66 pmol/min/million cells and 2.69 pmol/min/million cells
  Specific Activity Mean ± SD: 2.63 ± 0.0782 pmol/min/million cells
CYP2E1; Donor 2, Metaxalone 0.4 μM
  Percent of VC: 104%
  Specific Activity Individual: 0.631 pmol/min/million cells and 0.683 pmol/min/million cells and 0.765 pmol/min/million cells
  Specific Activity Mean ± SD: 0.693 ± 0.0673 pmol/min/million cells
CYP2E1; Donor 2, Metaxalone 4 μM
  Percent of VC: 89.6%
  Specific Activity Individual: 0.564 pmol/min/million cells and 0.605 pmol/min/million cells and 0.626 pmol/min/million cells
  Specific Activity Mean ± SD: 0.598 ± 0.0317 pmol/min/million cells
CYP2E1; Donor 2, Metaxalone 40 μM
  Percent of VC: 99.6%
  Specific Activity Individual: 0.558 pmol/min/million cells and 0.633 pmol/min/million cells and 0.804 pmol/min/million cells
  Specific Activity Mean ± SD: 0.665 ± 0.126 pmol/min/million cells
CYP2E1; Donor 3, Metaxalone 0.4 μM
  Percent of VC: 90.7%
  Specific Activity Individual: 0.449 pmol/min/million cells and 0.474 pmol/min/million cells and 0.462 pmol/min/million cells
  Specific Activity Mean ± SD: 0.462 ± 0.0125 pmol/min/million cells
CYP2E1; Donor 3, Metaxalone 4 μM
  Percent of VC: 87.7%
  Specific Activity Individual: 0.468 pmol/min/million cells and 0.464 pmol/min/million cells and 0.406 pmol/min/million cells
  Specific Activity Mean ± SD: 0.446 ± 0.0348 pmol/min/million cells
CYP2E1; Donor 3, Metaxalone 40 μM
  Percent of VC: 93.9%
  Specific Activity Individual: 0.470 pmol/min/million cells and 0.495 pmol/min/million cells and 0.469 pmol/min/million cells
  Specific Activity Mean ± SD: 0.478 ± 0.0146 pmol/min/million cells
CYP2E1; any of the tested concentrations (0.4, 4.0, 40 μM)
  effects on CYP activity: no significant effects
CYP2C9; 0.75 μM metaxalone
  % Turnover Mean: 5.53%
  % inhibition of turnover Mean: 81.4%
  Mean Conc.: 0.729 µM
  % Turnover: 5.4% and 5.6% (2×)
  % inhibition of turnover: 81.9% and 81.3%
  Conc.: 0.730 µM
CYP2C9; 7.5 μM metaxalone
  % Turnover Mean: 11.6%
  % inhibition of turnover Mean: 52.8%
  Mean Conc.: 7.52 µM
  % Turnover: 10.2% and 12.6%
  % inhibition of turnover: 51.0% and 58.5% and 48.8%
  Conc.: 7.49 µM and 7.65 µM and 7.44 µM
CYP2A6; metaxalone 0.5 μM
  Metaxalone Present Adjusted Individual: 0.309 µM and 0.302 µM and 0.285 µM
  Metaxalone Present Adjusted Mean ± SD: 0.299 ± 0.0124 µM
  Metaxalone Present Raw: 0.1546 µM and 0.1511 µM and 0.1425 µM
  Percent of Metabolic Negative Control Individual: 99.5% and 97.2% and 91.7%
  Percent of Metabolic Negative Control Mean ± SD: 96.1 ± 3.99%
CYP2A6; metaxalone 2.5 μM
  Metaxalone Present Adjusted Individual: 1.58 µM and 1.60 µM and 1.65 µM
  Metaxalone Present Adjusted Mean ± SD: 1.61 ± 0.0373 µM
  Metaxalone Present Raw: 0.7913 µM and 0.7979 µM and 0.8264 µM
  Percent of Metabolic Negative Control Individual: 104% and 105% and 109%
  Percent of Metabolic Negative Control Mean ± SD: 106 ± 2.46%
CYP2A6; metaxalone 25 μM
  Metaxalone Present Adjusted Individual: 15.5 μM and 15.7 μM (2×)
  Metaxalone Present Adjusted Mean ± SD: 15.6 ± 0.0975 µM
  Metaxalone Present Raw: 7.764 µM and 7.85 µM and 7.846 µM
  Percent of Metabolic Negative Control Individual: 101% and 102% (2×)
  Percent of Metabolic Negative Control Mean ± SD: 102 ± 0.636%
CYP2B6; 0.75 μM metaxalone, 5 pmol cyp
  % Turnover Mean: −6.8%
  [metaxalone] Mean: 0.845 µM
CYP2B6; [1]
  % Turnover %: −11.0% and −2.8% and −6.6%
  [metaxalone]: 0.878 µM and 0.813 µM and 0.843 µM
CYP2B6; [2]
  % Turnover Mean: −1.8%
  [metaxalone] Mean: 0.805 µM
CYP2B6; [3]
  % Turnover %: 5.5% and −6.7% and −4.0%
  [metaxalone]: 0.748 µM and 0.845 µM and 0.823 µM
CYP2B6; 7.5 μM metaxalone, 5 pmol cyp
  % Turnover Mean: 3.0%
  [metaxalone] Mean: 8.20 µM
  % Turnover %: −1.3%
CYP2B6; [4]
  % Turnover %: 3.0% and 7.2%
  [metaxalone]: 8.56 µM and 8.19 µM and 7.84 µM
CYP2B6; 7.5 μM metaxalone, 20 pmol cyp
  % Turnover Mean: −0.20%
  [metaxalone] Mean: 8.46 µM
  % Turnover %: −6.0%
CYP2B6; [5]
  % Turnover %: 1.8% and 3.6%
  [metaxalone]: 8.95 µM and 8.29 µM and 8.14 µM
CYP2B6; CYP isozyme 2B6, summary of studies
  Substrate: 0

Source: patent US20080292584A1 (priority 2005, published 2008)
